Values belong to the molecule of their own block, whether it stands above or below them.
Tests used:
[1] = Total antioxidant activity (ABTS radical cation scavenging); format: biochemical; details: Conc. ± SD; three independent experiments in duplicate; standard trolox; read-out: IC50 inhibitory concentration, ABTS^+ radical
Procedure: The ability of the test sample to scavenge 2,2′-azinobis-(3-ethylbenzothiazoline-6-sulphonic acid) (ABTS^·+) radical cation was compared with 6-hydroxy-2,5,7,8-tetramethylchroman-2-carboxylic acid (trolox) standard (Chang et al., [2007]; Erel, [2004]; Re et al., [1999]). The ABTS^·+ radical cation was pregenerated by mixing ABTS stock solution (7 mM) with potassium persulphate (2.45 mM) (final concentration) and incubating for 12–16 h in the dark at room temperature until the reaction was complete and the absorbance was stable. The absorbance of the ABTS^·+ solution was equilibrated to 0.70 (±0.02) by diluting with water at room temperature, then 1 mL of solution was mixed with 10 μL of the test sample (0.05–10 mg/mL), and the absorbance was measured at 734 nm after 6 min. All experiments were repeated three times. The percentage inhibition of absorbance was calculated and plotted as a function of the concentration of standard and sample to determine the trolox equivalent antioxidant concentration (TEAC). To calculate the TEAC, the gradient of the plot for the sample was divided by the gradient of the plot for trolox. The IC50 inhibitory concentration (nM/mL) values of tested compounds are depicted in Table 1. The ABTS^·+ radical scavenging activity of the samples was expressed as S%=[(Acontrol-Asample)/Acontrol]×100 where A control is the absorbance of the blank control (ABTS^·+ solution without test sample), and A sample is the absorbance of the test sample.

[2] = DPPH radical scavenging activity; format: biochemical; details: Conc. ± SD; standard ascorbic acid; read-out: IC50 inhibitory concentration, DPPH radical
Procedure: Compounds of SC series were evaluated for their in vitro free radical scavenging activities by 2,2-diphenyl-1-picrylhydrazyl (DPPH) assay method (Blois, [1958]; Shishoo et al., [1999]; Chhajed et al., [2007]). To determine the free radical scavenging activity, a method based on the reduction of a methanolic solution of the coloured DPPH radical was used. To a set of test tubes containing methanol (3 mL), DPPH reagent (2 mg/mL) (50 μL) was added. The initial absorbance was measured. To these test tubes, methanolic solution of different test solutions (1 mg/mL) were added (10–50 μL). Ascorbic acid (0.5 mg/mL) was also added in the concentration of 10, 20, 30, 40, 50 and 100 μL. After 20 min, absorbance was recorded at 516 nm. The experiment was performed in triplicate. The percentage reduction in absorbance was calculated from the initial and final absorbance of each solution (Dhar and Taploo, [1982]).

[3] = Nitric oxide radical scavenging (sodium nitroprusside, Griess reaction); format: biochemical; details: Conc. ± SD; standard curcumin; read-out: IC50 inhibitory concentration, Nitric oxide radical
Procedure: Nitric oxide generated from sodium nitroprusside in aqueous solution at physiological pH interacts with oxygen to produce nitrite ions, which were measured by the Griess reaction (Marcocci et al., [1994]; Green et al., [1982]). Scavenger of nitric oxide competes with oxygen leading to reduced production of nitric oxide (Mondal et al., [2006]). The reaction mixture (3 mL) containing sodium nitroprusside (10 mM) in phosphate-buffered saline (PBS) and the compounds in different concentrations (10, 20, 30, 40, 50 and 100 μg) were incubated at 25 °C for 150 min. At every 30-min interval, the incubated sample (0.5 mL) was removed and Griess reagent (1 % sulphanilamide, 0.1 % naphthylethylene diamine dihydrochloride in 2 % H3PO4) (0.5 mL) was added. The absorbance of the chromophore formed was measured at 546 nm. All the analyses were performed in triplicate, and the results were averaged. The percentage inhibition of nitric oxide generated was measured by comparing the absorbance values of control and test.

[4] = test system: BT474 (breast cancer cell line); assay: In vitro cytotoxicity by MTT assay, BT474; format: cell-based; details: Homo sapiens, 72 h; for cytotoxicity at 0.005 µM: BT-474, 0.005 μM; for cytotoxicity at 0.005 µM / cytotoxicity at 0.015 µM / cytotoxicity at 0.045 µM / cytotoxicity at 0.13 µM / cytotoxicity at 0.41 µM / cytotoxicity at 1.23 µM / cytotoxicity at 3.7 µM / cytotoxicity at 11.11 µM / cytotoxicity at 33.33 µM / cytotoxicity at 100 µM: read-out: % cytotoxicity (100 − % cell survival) of BT474 cell line; for cytotoxicity at 0.015 µM: BT-474, 0.015 μM; for cytotoxicity at 0.045 µM: BT-474, 0.045 μM; for cytotoxicity at 0.13 µM: BT-474, 0.13 μM; for cytotoxicity at 0.41 µM: BT-474, 0.41 μM; for cytotoxicity at 1.23 µM: BT-474, 1.23 μM; for cytotoxicity at 3.7 µM: BT-474, 3.7 μM; for cytotoxicity at 11.11 µM: BT-474, 11.11 μM; for cytotoxicity at 33.33 µM: BT-474, 33.33 μM; for cytotoxicity at 100 µM: BT-474, 100 μM; for CC50: BT-474, BT474, concentration at which 50 % of the cells are dead, read-out: CTC50 (cytotoxicity concentration)
Outline: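 Cells seeded at ~10,000/well in RPMI-1640 with 10 % newborn calf serum, grown 24 h, then exposed to compounds for 72 h at 37 °C, 5 % CO2. Viability read by MTT (4 h), formazan dissolved in propanol, absorbance at 490 nm.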

SMILES: O=C(NS(=O)(=O)c1nnc(N=Cc2ccc(Cl)cc2)s1)c1ccccc1 [Compound 9b, N-({5-[(4-Chlorobenzylidene)amino]-1,3,4-thiadiazol-2-yl}sulfonyl)benzamide]
IC50 [1]: 93.3 ± 10.7 µM
IC50 [2]: 88.2 ± 11.1 µM
IC50 [3]: 52.6 ± 16.7 µM
cytotoxicity at 0.005 µM [4]: 38.8%
cytotoxicity at 0.015 µM [4]: 39.4%
cytotoxicity at 0.045 µM [4]: 41.5%
cytotoxicity at 0.13 µM [4]: 42%
cytotoxicity at 0.41 µM [4]: 46.1%
cytotoxicity at 1.23 µM [4]: 50.1%
cytotoxicity at 3.7 µM [4]: 56.3%
cytotoxicity at 11.11 µM [4]: 60.7%
cytotoxicity at 33.33 µM [4]: 62.3%
cytotoxicity at 100 µM [4]: 65%
CC50 [4]: 2.41 µM

SMILES: COc1ccc(C=Nc2nnc(S(=O)(=O)NC(=O)c3ccccc3)s2)cc1 [Compound 9d, N-({5-[(4-Methoxybenzylidene)amino]-1,3,4-thiadiazol-2-yl}sulfonyl)benzamide]
IC50 [1]: 55.6 ± 6.98 µM
IC50 [2]: 63.6 ± 8.35 µM
IC50 [3]: 53 ± 6.74 µM
cytotoxicity at 0.005 µM [4]: 33.3%
cytotoxicity at 0.015 µM [4]: 33.4%
cytotoxicity at 0.045 µM [4]: 33.5%
cytotoxicity at 0.13 µM [4]: 34%
cytotoxicity at 0.41 µM [4]: 34.2%
cytotoxicity at 1.23 µM [4]: 36.8%
cytotoxicity at 3.7 µM [4]: 36.8%
cytotoxicity at 11.11 µM [4]: 37.4%
cytotoxicity at 33.33 µM [4]: 38%
cytotoxicity at 100 µM [4]: 39.4%

SMILES: O=C(NS(=O)(=O)c1nnc(N=Cc2ccc(O)cc2)s1)c1ccccc1 [Compound 9e, N-({5-[(4-Hydroxybenzylidene)amino]-1,3,4-thiadiazol-2-yl}sulfonyl)benzamide]
IC50 [1]: 47.9 ± 9.9 µM
IC50 [2]: 107 ± 18.1 µM
IC50 [3]: 155 ± 17.6 µM
cytotoxicity at 0.005 µM [4]: 25.2%
cytotoxicity at 0.015 µM [4]: 26.4%
cytotoxicity at 0.045 µM [4]: 27.3%
cytotoxicity at 0.13 µM [4]: 28.9%
cytotoxicity at 0.41 µM [4]: 29.9%
cytotoxicity at 1.23 µM [4]: 31.9%
cytotoxicity at 3.7 µM [4]: 37.9%
cytotoxicity at 11.11 µM [4]: 41.8%
cytotoxicity at 33.33 µM [4]: 47.5%
cytotoxicity at 100 µM [4]: 56.2%

SMILES: COc1cc(C=Nc2nnc(S(=O)(=O)NC(=O)c3ccccc3)s2)ccc1O [Compound 9g, N-({5-[(4-Hydroxy-3-methoxybenzylidene)amino]-1,3,4-thiadiazol-2-yl}sulfonyl)benzamide]
cytotoxicity at 0.005 µM [4]: 27.4%
cytotoxicity at 0.015 µM [4]: 28%
cytotoxicity at 0.045 µM [4]: 28.7%
cytotoxicity at 0.13 µM [4]: 29.2%
cytotoxicity at 0.41 µM [4]: 31.4%
cytotoxicity at 1.23 µM [4]: 32.8%
cytotoxicity at 3.7 µM [4]: 33.2%
cytotoxicity at 11.11 µM [4]: 34.7%
cytotoxicity at 33.33 µM [4]: 36.2%
cytotoxicity at 100 µM [4]: 38.1%

SMILES: CN(C)c1ccc(C=Nc2nnc(S(=O)(=O)NC(=O)c3ccccc3)s2)cc1 [Compound 9h, N-[(5-{[4-(Dimethylamino)benzylidene]amino}-1,3,4-thiadiazol-2-yl)sulfonyl]benzamide]
cytotoxicity at 0.005 µM [4]: 29%
cytotoxicity at 0.015 µM [4]: 29.1%
cytotoxicity at 0.045 µM [4]: 30.6%
cytotoxicity at 0.13 µM [4]: 32.9%
cytotoxicity at 0.41 µM [4]: 33.8%
cytotoxicity at 1.23 µM [4]: 34.2%
cytotoxicity at 3.7 µM [4]: 35.2%
cytotoxicity at 11.11 µM [4]: 38.4%
cytotoxicity at 33.33 µM [4]: 41.5%
cytotoxicity at 100 µM [4]: 47.7%

The next lines start with results.

IC50 [1]: 73.3 ± 7.05 µM
IC50 [2]: 134 ± 12.9 µM
IC50 [3]: 104 ± 7.5 µM
SMILES: O=C(NS(=O)(=O)c1nnc(N=Cc2ccccc2)s1)c1ccccc1 [Compound 9a, N-{[5-(Benzylidenamino)-1,3,4-thiadiazol-2-yl]sulphonyl} benzamide]
cytotoxicity at 0.005 µM [4]: 35.3%
cytotoxicity at 0.015 µM [4]: 35.8%
cytotoxicity at 0.045 µM [4]: 36.4%
cytotoxicity at 0.13 µM [4]: 37%
cytotoxicity at 0.41 µM [4]: 38%
cytotoxicity at 1.23 µM [4]: 39%
cytotoxicity at 3.7 µM [4]: 40.2%
cytotoxicity at 11.11 µM [4]: 40.6%
cytotoxicity at 33.33 µM [4]: 41.5%
cytotoxicity at 100 µM [4]: 66%

IC50 [1]: 196 ± 16.6 µM
IC50 [2]: 41.3 ± 4.23 µM
IC50 [3]: 81.9 ± 10.4 µM
SMILES: COc1ccccc1C=Nc1nnc(S(=O)(=O)NC(=O)c2ccccc2)s1 [Compound 9c, N-({5-[(2-Methoxybenzylidene)amino]-1,3,4-thiadiazol-2-yl}sulfonyl)benzamide]
cytotoxicity at 0.005 µM [4]: 38.1%
cytotoxicity at 0.015 µM [4]: 41.5%
cytotoxicity at 0.045 µM [4]: 42.6%
cytotoxicity at 0.13 µM [4]: 44.4%
cytotoxicity at 0.41 µM [4]: 47%
cytotoxicity at 1.23 µM [4]: 50.4%
cytotoxicity at 3.7 µM [4]: 53.6%
cytotoxicity at 11.11 µM [4]: 54.8%
cytotoxicity at 33.33 µM [4]: 58.8%
cytotoxicity at 100 µM [4]: 67.1%
CC50 [4]: 0.794 µM

IC50 [1]: 207 ± 17.4 µM
IC50 [2]: 80.6 ± 11.4 µM
IC50 [3]: 38 ± 11.8 µM
SMILES: O=C(NS(=O)(=O)c1nnc(N=Cc2ccccc2O)s1)c1ccccc1 [Compound 9f, N-({5-[(2-Hydroxybenzylidene)amino]-1,3,4-thiadiazol-2-yl}sulfonyl)benzamide]
cytotoxicity at 0.005 µM [4]: 30.6%
cytotoxicity at 0.015 µM [4]: 32.6%
cytotoxicity at 0.045 µM [4]: 33.9%
cytotoxicity at 0.13 µM [4]: 34.8%
cytotoxicity at 0.41 µM [4]: 34.8%
cytotoxicity at 1.23 µM [4]: 35.5%
cytotoxicity at 3.7 µM [4]: 35.8%
cytotoxicity at 11.11 µM [4]: 36.1%
cytotoxicity at 33.33 µM [4]: 38.2%
cytotoxicity at 100 µM [4]: 38.7%

From paper PMC3973950, “Synthesis of 5-arylidine amino-1,3,4-thiadiazol-2-[(N-substituted benzyol)]sulphonamides endowed with potent antioxidants and anticancer activity induces growth inhibition in HEK293, BT474 and NCI-H226 cells” (Medicinal Chemistry Research, 2013)
